Assay results reported in patent US20250271426A1, “REDUCTION OF BITTER TASTE OF ACTIVE PHARMACEUTICAL INGREDIENTS AND RELATED ASSAYS AND SCREENING METHODS” (Firmenich Incorporated, priority 2022, published 2025).

Legend:
Assay in all cases: FLIPR calcium assay, cells with promiscuous G protein transfected with bitter receptor cDNA
Type in all cases: cell-based
Conditions in all cases: responsive if cellular response of >10% over baseline, Fluo4-AM
[1] = biological target: T1, T2R receptor SEQ ID NO: 1 (S1) (Homo sapiens, UniProt Q9NYW7)
T1 construct: expressed in transfected cells; host or cells: cells expressing a promiscuous G protein (e.g., G16g44)
T1 sequence (Q9NYW7 1-299): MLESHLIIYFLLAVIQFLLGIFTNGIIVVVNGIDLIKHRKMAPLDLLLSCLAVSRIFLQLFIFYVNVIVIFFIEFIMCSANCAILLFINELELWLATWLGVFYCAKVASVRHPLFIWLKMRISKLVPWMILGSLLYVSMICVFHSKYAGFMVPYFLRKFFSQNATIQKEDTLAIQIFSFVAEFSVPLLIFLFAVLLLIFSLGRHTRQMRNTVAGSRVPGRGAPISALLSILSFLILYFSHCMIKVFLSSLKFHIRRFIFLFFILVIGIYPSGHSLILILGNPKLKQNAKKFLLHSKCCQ
Outline: (§1)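 Fluo4-AM calcium imaging on FLIPR, agonist added during recording. Host: G16g44 cells, one receptor cDNA per transfection, 28 h culture. Activity cutoff >10% over baseline.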

[2] = biological target: T2, T2R receptor SEQ ID NO: 2 (S2) (Homo sapiens, UniProt Q9NYW2)
T2 construct: expressed in transfected cells; host or cells: cells expressing a promiscuous G protein (e.g., G16g44)
T2 sequence (Q9NYW2 1-309): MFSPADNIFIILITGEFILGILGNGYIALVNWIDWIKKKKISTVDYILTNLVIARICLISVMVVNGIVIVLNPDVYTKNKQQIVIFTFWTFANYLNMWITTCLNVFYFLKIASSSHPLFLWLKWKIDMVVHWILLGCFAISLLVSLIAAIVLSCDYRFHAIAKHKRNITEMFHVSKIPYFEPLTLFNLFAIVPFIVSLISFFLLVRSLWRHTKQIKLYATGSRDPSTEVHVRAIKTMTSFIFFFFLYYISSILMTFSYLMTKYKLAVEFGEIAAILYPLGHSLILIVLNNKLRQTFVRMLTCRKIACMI
Outline: as §1

[3] = biological target: T3, T2R receptor SEQ ID NO: 4 (S4) (Homo sapiens, UniProt Q9NYV8)
T3 construct: expressed in transfected cells; host or cells: cells expressing a promiscuous G protein (e.g., G16g44)
T3 sequence (Q9NYV8 1-317): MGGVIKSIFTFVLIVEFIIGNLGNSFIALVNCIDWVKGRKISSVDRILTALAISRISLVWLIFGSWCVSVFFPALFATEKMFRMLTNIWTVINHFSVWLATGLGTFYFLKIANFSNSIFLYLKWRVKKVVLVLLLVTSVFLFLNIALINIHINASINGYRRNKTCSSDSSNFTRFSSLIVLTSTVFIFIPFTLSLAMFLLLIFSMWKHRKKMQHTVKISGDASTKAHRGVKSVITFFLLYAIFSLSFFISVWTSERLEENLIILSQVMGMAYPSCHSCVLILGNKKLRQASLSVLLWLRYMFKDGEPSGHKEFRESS
Outline: as §1

[4] = biological target: T4, T2R receptor SEQ ID NO: 5 (S5) (Homo sapiens, UniProt P59534)
T4 construct: expressed in transfected cells; host or cells: cells expressing a promiscuous G protein (e.g., G16g44)
T4 sequence (P59534 18-338): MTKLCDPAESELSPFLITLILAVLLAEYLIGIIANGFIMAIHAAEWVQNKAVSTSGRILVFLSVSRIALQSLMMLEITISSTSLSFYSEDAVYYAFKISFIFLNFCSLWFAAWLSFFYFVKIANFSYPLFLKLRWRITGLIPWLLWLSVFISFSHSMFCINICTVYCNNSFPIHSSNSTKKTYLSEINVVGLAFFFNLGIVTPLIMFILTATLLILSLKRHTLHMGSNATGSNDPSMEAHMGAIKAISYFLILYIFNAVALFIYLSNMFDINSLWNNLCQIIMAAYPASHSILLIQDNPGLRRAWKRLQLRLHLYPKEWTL
Outline: as §1

[5] = biological target: T5, T2R receptor SEQ ID NO: 6 (S6) (Homo sapiens, UniProt P59540)
T5 construct: expressed in transfected cells; host or cells: cells expressing a promiscuous G protein (e.g., G16g44)
T5 sequence (P59540 1-309): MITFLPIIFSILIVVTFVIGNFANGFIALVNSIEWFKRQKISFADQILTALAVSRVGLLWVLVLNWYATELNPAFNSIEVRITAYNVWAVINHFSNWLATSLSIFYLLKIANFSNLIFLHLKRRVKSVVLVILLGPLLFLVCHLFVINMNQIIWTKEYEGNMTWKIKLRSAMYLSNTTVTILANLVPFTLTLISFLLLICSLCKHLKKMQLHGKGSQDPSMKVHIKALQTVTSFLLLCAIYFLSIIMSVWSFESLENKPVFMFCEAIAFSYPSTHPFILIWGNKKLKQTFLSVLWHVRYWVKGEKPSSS
Outline: as §1

[6] = biological target: T6, T2R receptor SEQ ID NO: 3 (S3) (Homo sapiens, UniProt Q9NYW0, T156M)
T6 construct: expressed in transfected cells; host or cells: cells expressing a promiscuous G protein (e.g., G16g44)
T6 sequence (Q9NYW0 1-307 T156M): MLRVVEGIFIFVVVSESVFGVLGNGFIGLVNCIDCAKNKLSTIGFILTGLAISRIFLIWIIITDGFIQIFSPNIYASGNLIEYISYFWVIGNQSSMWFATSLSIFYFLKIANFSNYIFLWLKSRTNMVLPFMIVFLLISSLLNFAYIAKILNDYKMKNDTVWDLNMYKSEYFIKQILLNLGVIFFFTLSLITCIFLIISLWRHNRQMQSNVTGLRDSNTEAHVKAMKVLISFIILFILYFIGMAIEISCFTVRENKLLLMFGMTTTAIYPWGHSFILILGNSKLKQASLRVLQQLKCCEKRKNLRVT
Outline: as §1

SMILES	S1 positive response of T2R receptor to API [1]	S2 positive response of T2R receptor to API [2]	S4 positive response of T2R receptor to API [3]	S5 positive response of T2R receptor to API [4]	S6 positive response of T2R receptor to API [5]	S3 positive response of T2R receptor to API [6]
CCOC(=O)[C@H](CCc1ccccc1)N[C@@H](C)C(=O)N1CCC[C@H]1C(=O)O [Enalapril]	+ (a “+” to indicate whether a particular T2R receptor showed a positive response to a particular API)	+ (a “+” to indicate whether a particular T2R receptor showed a positive response to a particular API)	+ (a “+” to indicate whether a particular T2R receptor showed a positive response to a particular API)	+ (a “+” to indicate whether a particular T2R receptor showed a positive response to a particular API)	+ (a “+” to indicate whether a particular T2R receptor showed a positive response to a particular API)	
CC[N+](C)(CC)CCOC(=O)C(O)(c1ccccc1)C1CCCCC1 (centres unmarked) [Oxyphenonium]	+ (a “+” to indicate whether a particular T2R receptor showed a positive response to a particular API)	+ (a “+” to indicate whether a particular T2R receptor showed a positive response to a particular API)		+ (a “+” to indicate whether a particular T2R receptor showed a positive response to a particular API)	+ (a “+” to indicate whether a particular T2R receptor showed a positive response to a particular API)	+ (a “+” to indicate whether a particular T2R receptor showed a positive response to a particular API)
COc1ccccc1OCC(O)CO (centres unmarked) [Guaifenesin]	+ (a “+” to indicate whether a particular T2R receptor showed a positive response to a particular API)	+ (a “+” to indicate whether a particular T2R receptor showed a positive response to a particular API)	+ (a “+” to indicate whether a particular T2R receptor showed a positive response to a particular API)	+ (a “+” to indicate whether a particular T2R receptor showed a positive response to a particular API)		+ (a “+” to indicate whether a particular T2R receptor showed a positive response to a particular API)
CCC[C@@H]1C[C@@H](C(=O)N[C@@H]([C@H]2O[C@H](SC)[C@H](O)[C@@H](O)[C@H]2O)[C@H](C)Cl)N(C)C1 [Clinamycin]		+ (a “+” to indicate whether a particular T2R receptor showed a positive response to a particular API)	+ (a “+” to indicate whether a particular T2R receptor showed a positive response to a particular API)	+ (a “+” to indicate whether a particular T2R receptor showed a positive response to a particular API)		+ (a “+” to indicate whether a particular T2R receptor showed a positive response to a particular API)
COc1cc(Cc2cnc(N)nc2N)cc(OC)c1OC [Trimethoprim]		+ (a “+” to indicate whether a particular T2R receptor showed a positive response to a particular API)		+ (a “+” to indicate whether a particular T2R receptor showed a positive response to a particular API)	+ (a “+” to indicate whether a particular T2R receptor showed a positive response to a particular API)	+ (a “+” to indicate whether a particular T2R receptor showed a positive response to a particular API)
CC[C@H]1OC(=O)[C@H](C)[C@@H](O[C@H]2C[C@@](C)(OC)[C@@H](O)[C@H](C)O2)[C@H](C)[C@@H](O[C@@H]2O[C@H](C)C[C@H](N(C)C)[C@H]2O)[C@](C)(O)C[C@@H](C)C(=O)[C@H](C)[C@@H](O)[C@]1(C)O [Erythromycin]		+ (a “+” to indicate whether a particular T2R receptor showed a positive response to a particular API)		+ (a “+” to indicate whether a particular T2R receptor showed a positive response to a particular API)	+ (a “+” to indicate whether a particular T2R receptor showed a positive response to a particular API)	+ (a “+” to indicate whether a particular T2R receptor showed a positive response to a particular API)
CN1CCN(CC(=O)N2c3ccccc3C(=O)Nc3cccnc32)CC1 [Pirenzepine]		+ (a “+” to indicate whether a particular T2R receptor showed a positive response to a particular API)		+ (a “+” to indicate whether a particular T2R receptor showed a positive response to a particular API)	+ (a “+” to indicate whether a particular T2R receptor showed a positive response to a particular API)	+ (a “+” to indicate whether a particular T2R receptor showed a positive response to a particular API)
O=C(N[C@H](CO)[C@H](O)c1ccc([N+](=O)[O-])cc1)C(Cl)Cl [Chloramphenicol]	+ (a “+” to indicate whether a particular T2R receptor showed a positive response to a particular API)	+ (a “+” to indicate whether a particular T2R receptor showed a positive response to a particular API)		+ (a “+” to indicate whether a particular T2R receptor showed a positive response to a particular API)	+ (a “+” to indicate whether a particular T2R receptor showed a positive response to a particular API)	+ (a “+” to indicate whether a particular T2R receptor showed a positive response to a particular API)
NC(N)=Nc1nc(CSCCC(N)=NS(N)(=O)=O)cs1 [Famotidine]	+ (a “+” to indicate whether a particular T2R receptor showed a positive response to a particular API)	+ (a “+” to indicate whether a particular T2R receptor showed a positive response to a particular API)		+ (a “+” to indicate whether a particular T2R receptor showed a positive response to a particular API)	+ (a “+” to indicate whether a particular T2R receptor showed a positive response to a particular API)	+ (a “+” to indicate whether a particular T2R receptor showed a positive response to a particular API)
